Experimental data: ChEMBL document CHEMBL4052639, “2-Isocyano glucose used in Ugi four-component reaction: An approach to enhance inhibitory effect against DNA oxidation” (Eur J Med Chem, 2017)
Calls of active or inactive are those of the source. The calls are words filed in the database; no cut-off is given here.

Legend:
Type in all cases: functional
[1] = Antioxidant activity assessed as reduction in AAPH-induced DNA oxidation up to 400 uM measured every 2 hrs by TBARS assay
[2] = Antioxidant activity assessed as reduction in hydroxyl radical-induced DNA oxidation by measuring TBARS level at 400 uM after 90 mins relative to control; parameters: scale not given: the % may be the effect or the level left
[3] = Antioxidant activity assessed as reduction in Cu2+/GSH-induced DNA oxidation by measuring TBARS level at 400 uM after 90 mins relative to control; parameters: scale not given: the % may be the effect or the level left

| SMILES | Activity [1] | Activity [2] [%] | Activity [3] [%] |
| --- | --- | --- | --- |
| COc1cc(/C=C/C(=O)O)ccc1O | Active | – | – |
| O=C(CN(C(=O)c1cc(O)c(O)c(O)c1)c1ccccc1)N[C@@H]1[C@@H](O)[C@H](O)[C@@H](CO)O[C@H]1O | Active | 92.7 | 90.1 |
| O=C(CN(Cc1ccccc1)C(=O)/C=C/c1ccc(O)c(O)c1)N[C@@H]1[C@@H](O)[C@H](O)[C@@H](CO)O[C@H]1O | Active | 93.7 | 94.6 |
| COc1cc(/C=C/C(=O)N(CC(=O)N[C@@H]2[C@@H](O)[C@H](O)[C@@H](CO)O[C@H]2O)Cc2ccccc2)ccc1O | Active | 94.7 | 92.8 |
| O=C(CN(C(=O)c1ccc(O)cc1)c1ccc(O)cc1)N[C@@H]1[C@@H](O)[C@H](O)[C@@H](CO)O[C@H]1O | Active | 94.9 | 95 |
| O=C(O)c1cc(O)c(O)c(O)c1 | Active | – | – |
| O=C(CN(C(=O)c1cc(O)c(O)c(O)c1)c1ccccc1)NC12CC3CC(CC(C3)C1)C2 | Active | 95.6 | 93.6 |
| O=C(CN(C(=O)c1cc(O)c(O)c(O)c1)c1ccccc1)NC1CCCCC1 | Active | 97.1 | 97.1 |
| O=C(O)/C=C/c1ccc(O)c(O)c1 | Active | – | – |
| O=C(CN(C(=O)c1ccccc1)c1ccccc1)N[C@@H]1[C@@H](O)[C@H](O)[C@@H](CO)O[C@H]1O | inactive | 100 | 99.3 |
| O=C(CN(C(=O)c1cc(O)c(O)c(O)c1)c1ccccc1)NCCc1c[nH]c2ccccc12 | Active | 93.8 | 96.2 |
| O=C(O)c1ccc(O)cc1 | Active | – | – |
| O=C(CN(C(=O)c1cc(O)c(O)c(O)c1)c1ccc(O)cc1)N[C@@H]1[C@@H](O)[C@H](O)[C@@H](CO)O[C@H]1O | Active | 91.8 | 91 |
| O=C(CN(C(=O)c1ccccc1)c1ccc(O)cc1)N[C@@H]1[C@@H](O)[C@H](O)[C@@H](CO)O[C@H]1O | Active | 98.3 | 96.7 |
| O=C(CN(C(=O)c1ccc(O)cc1)c1ccccc1)N[C@@H]1[C@@H](O)[C@H](O)[C@@H](CO)O[C@H]1O | Active | 96.5 | 97.8 |
